In PubChem BioAssay AID248 (DTP/NCI, 2004):
Toxic doses and inconclusive results are not listed. Cut-off read from the data, not from the text of the source: active = T/C of 150% or more; inactive = T/C below 125%.

System: L1210 leukemia ip in BDF1 mice, survival T/C
Assay: NCI In Vivo Anticancer Drug Screen. Data for tumor model L1210 Leukemia (intraperitoneal) in B6D2F1 (BDF1) mice
Settings: endpoint: mean survival time, higher = longer survival
Procedure, shortened: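 In this screen, tumor-bearing mice given compound are compared to those given vehicle, and their survival values are reported as a treated-to-control quotient.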

[1] = dose: 100.0 mg/kg/injection, schedule: Q01DX001 (ip), vehicle: saline
[2] = dose: 200.0 mg/kg/injection, schedule: Q01DX001 (ip), vehicle: saline
[3] = dose: 400.0 mg/kg/injection, schedule: Q01DX001 (ip), vehicle: saline
[4] = dose: 100.0 mg/kg/injection, schedule: Q04DX003 (ip), vehicle: saline
[5] = dose: 200.0 mg/kg/injection, schedule: Q04DX003 (ip), vehicle: saline
[6] = dose: 400.0 mg/kg/injection, schedule: Q04DX003 (ip), vehicle: saline
[7] = dose: 100.0 mg/kg/injection, schedule: Q01DX009 (ip), vehicle: saline with Tween-80
[8] = dose: 100.0 mg/kg/injection, schedule: Q04DX003 (ip), vehicle: saline with Tween-80
[9] = dose: 200.0 mg/kg/injection, schedule: Q04DX003 (ip), vehicle: saline with Tween-80
[10] = dose: 400.0 mg/kg/injection, schedule: Q01DX009 (ip), vehicle: saline with Tween-80
[11] = dose: 100.0 mg/kg/injection, schedule: Q01DX009 (ip), vehicle: Klucel (hydroxypropylcellulose) (HPC)
[12] = dose: 100.0 mg/kg/injection, schedule: Q04DX003 (ip), vehicle: Klucel (hydroxypropylcellulose) (HPC)
[13] = dose: 200.0 mg/kg/injection, schedule: Q01DX009 (ip), vehicle: Klucel (hydroxypropylcellulose) (HPC)
[14] = dose: 200.0 mg/kg/injection, schedule: Q04DX003 (ip), vehicle: Klucel (hydroxypropylcellulose) (HPC)
[15] = dose: 400.0 mg/kg/injection, schedule: Q01DX009 (ip), vehicle: Klucel (hydroxypropylcellulose) (HPC)
[16] = dose: 400.0 mg/kg/injection, schedule: Q04DX003 (ip), vehicle: Klucel (hydroxypropylcellulose) (HPC)
[17] = dose: 50.0 mg/kg/injection, schedule: Q01DX001 (ip), vehicle: carboxymethylcellulose (CMC)
[18] = dose: 100.0 mg/kg/injection, schedule: Q01DX001 (ip), vehicle: carboxymethylcellulose (CMC)
[19] = dose: 200.0 mg/kg/injection, schedule: Q01DX001 (ip), vehicle: carboxymethylcellulose (CMC)

Measured: T/C

O=C(OC1COC(SCc2ccccc2)C(OC(=O)c2ccccc2)C1OC(=O)c1ccccc1)c1ccccc1 (centres undefined)
inactive: [1] 98 % of control | [2] 110 % of control | [3] 97 % of control

COc1cc2c(cc1OC)C(=O)N(C)CC2
inactive: dose: 100.0 mg/kg/injection, schedule: Q01DX009 (ip), vehicle: water 95 % of control | dose: 100.0 mg/kg/injection, schedule: Q04DX003 (ip), vehicle: water 97 % of control | dose: 200.0 mg/kg/injection, schedule: Q01DX009 (ip), vehicle: water 102 % of control | dose: 200.0 mg/kg/injection, schedule: Q04DX003 (ip), vehicle: water 97 % of control | dose: 400.0 mg/kg/injection, schedule: Q04DX003 (ip), vehicle: water 100 % of control

CSc1cc(C)c(OC(=O)Nc2cc(C)ccc2C)c(C)c1
inactive: dose: 25.0 mg/kg/injection, schedule: Q01DX009 (ip), vehicle: saline 98 % of control | dose: 50.0 mg/kg/injection, schedule: Q01DX009 (ip), vehicle: saline 93 % of control | dose: 100.0 mg/kg/injection, schedule: Q01DX009 (ip), vehicle: saline 91 % of control | [4] 107 % of control | dose: 200.0 mg/kg/injection, schedule: Q01DX009 (ip), vehicle: saline 91 % of control | [5] 98 % of control | dose: 400.0 mg/kg/injection, schedule: Q01DX009 (ip), vehicle: saline 106 % of control | [6] 95 % of control

Cc1c(Cl)cccc1NC(=O)NCCC(C)C
inactive: [7] 86 % of control | [8] 93 % of control | [9] 91 % of control | [10] 89 % of control | dose: 400.0 mg/kg/injection, schedule: Q04DX003 (ip), vehicle: saline with Tween-80 95 % of control

OC(c1ccccc1)(c1c2ccccc2cc2ccccc12)C1CCC1 (centres undefined)
inactive: [11] 101 % of control | [12] 110 % of control | [13] 102 % of control | [14] 91 % of control | [15] 96 % of control | [16] 110 % of control

CCCCCCCCCCCCSC1=C(Cl)C(=O)C(OC)=C(OC)C1=O
inactive: dose: 3.12 mg/kg/injection, schedule: Q01DX009 (ip), vehicle: saline with Tween-80 100 % of control | dose: 6.25 mg/kg/injection, schedule: Q01DX009 (ip), vehicle: saline with Tween-80 93 % of control | dose: 12.5 mg/kg/injection, schedule: Q01DX009 (ip), vehicle: saline with Tween-80 94 % of control | dose: 25.0 mg/kg/injection, schedule: Q01DX009 (ip), vehicle: saline with Tween-80 96 % of control | dose: 50.0 mg/kg/injection, schedule: Q01DX009 (ip), vehicle: saline with Tween-80 100 % of control | [7] 94 % of control

CC1C(C)(C)P(N)(=O)C1(C)C (centres undefined)
inactive: [4] 100 % of control | [5] 103 % of control | [6] 97 % of control

COc1cccc(CN(C)C)c1C(O)c1ccccc1 (centres undefined)
inactive: [17] 95 % of control | [18] 97 % of control | [19] 106 % of control

Cc1ccc(Cl)c(C2c3ccccc3Cc3ccc4ccccc4c32)c1 (centres undefined)
inactive: [17] 101 % of control | [18] 101 % of control | [19] 95 % of control | dose: 400.0 mg/kg/injection, schedule: Q01DX001 (ip), vehicle: carboxymethylcellulose (CMC) 98 % of control

O=C(NCCCCC(NC(=O)OCc1ccccc1)C(=O)NCCCCCCNCCCCCCNC(=O)C(CCCCNC(=O)OCc1ccccc1)NC(=O)OCc1ccccc1)OCc1ccccc1 (centres undefined)
inactive: [1] 94 % of control | [2] 92 % of control | [3] 96 % of control

Cc1ccc(-n2ccnc2)c(N=Cc2ccc(N(CCCl)CCCl)cc2C)c1
inactive: dose: 100.0 mg/kg/injection, schedule: Q04DX002 (ip), vehicle: Klucel (hydroxypropylcellulose) (HPC) 98 % of control | dose: 200.0 mg/kg/injection, schedule: Q04DX002 (ip), vehicle: Klucel (hydroxypropylcellulose) (HPC) 102 % of control | dose: 400.0 mg/kg/injection, schedule: Q04DX002 (ip), vehicle: Klucel (hydroxypropylcellulose) (HPC) 124 % of control

O=C1C=CC(=Nc2ccc3c(c2)C(Br)c2ccccc2-3)O1 (centres undefined)
inactive: dose: 3.12 mg/kg/injection, schedule: Q04DX003 (ip), vehicle: saline 100 % of control | dose: 4.5 mg/kg/injection, schedule: Q01DX009 (ip), vehicle: saline 102 % of control | dose: 6.25 mg/kg/injection, schedule: Q04DX003 (ip), vehicle: saline 105 % of control | dose: 9.0 mg/kg/injection, schedule: Q01DX009 (ip), vehicle: saline 95 % of control | dose: 12.5 mg/kg/injection, schedule: Q01DX001 (ip), vehicle: acetone 100 % of control | dose: 12.5 mg/kg/injection, schedule: Q04DX003 (ip), vehicle: saline 103 % of control | dose: 18.0 mg/kg/injection, schedule: Q04DX003 (ip), vehicle: saline 98 % of control

Cc1ccncc1C#N
inactive: dose: 6.0 mg/kg/injection, schedule: Q04DX003 (ip), vehicle: saline 98 % of control | dose: 12.0 mg/kg/injection, schedule: Q04DX003 (ip), vehicle: saline 98 % of control | dose: 24.0 mg/kg/injection, schedule: Q04DX003 (ip), vehicle: saline 98 % of control

Cc1nc(S(C)(=O)=O)nc(S(C)(=O)=O)c1Cl
inactive: dose: 1.5 mg/kg/injection, schedule: Q01DX001 (ip), vehicle: Klucel (hydroxypropylcellulose) (HPC) 92 % of control | dose: 3.0 mg/kg/injection, schedule: Q01DX001 (ip), vehicle: Klucel (hydroxypropylcellulose) (HPC) 95 % of control | dose: 6.0 mg/kg/injection, schedule: Q01DX001 (ip), vehicle: Klucel (hydroxypropylcellulose) (HPC) 104 % of control | dose: 12.0 mg/kg/injection, schedule: Q01DX001 (ip), vehicle: Klucel (hydroxypropylcellulose) (HPC) 104 % of control | dose: 12.5 mg/kg/injection, schedule: Q01DX001 (ip), vehicle: Klucel (hydroxypropylcellulose) (HPC) 107 % of control

CC(O)C[As](=O)(O)c1ccc(Cl)cc1 (centres undefined)
inactive: dose: 25.0 mg/kg/injection, schedule: Q04DX003 (ip), vehicle: saline with Tween-80 94 % of control

Cc1cn(C2C=CC(CO)O2)c(=O)[nH]c1=O (centres undefined)
inactive: [7] 89 % of control | [10] 90 % of control

CCOC(=O)c1ccc(NC(=S)Nc2ccccc2)cc1N(CC)CC
inactive: [11] 101 % of control | [13] 97 % of control | [15] 104 % of control

O=C(C(=Nc1ccccc1)c1ccccc1)c1ccccc1
inactive: [8] 96 % of control | [9] 94 % of control

O=C(NCCCl)NCC1CCCO1 (centres undefined)
inactive: dose: 50.0 mg/kg/injection, schedule: Q04DX003 (ip), vehicle: Klucel (hydroxypropylcellulose) (HPC) 103 % of control | [12] 103 % of control | [14] 103 % of control | [16] 90 % of control

O=P(Oc1ccccc1)(Oc1ccccc1)Oc1ccccc1Cl
inactive: [1] 96 % of control | [2] 102 % of control | [3] 97 % of control
